Data published in patent US20250163057A1, “DCN-1 MODULATING COMPOUNDS AND METHODS OF USE THEREOF” (Cellarity, Inc., priority 2023, published 2025).
Like-named read-outs stand apart in the source and are kept apart here.

Experiments:
DCN1 protein = DCN1 protein (Homo sapiens (Human), UniProt Q96GG9); experiment: Intact Protein MS Analysis with the RapidFire-TOF System (covalent adduct formation); type: binding; conditions: MS Emax; 400 nM DCN1, 3 hours at room temperature
Experimental: An MS assay was performed to evaluate the ability of the compounds to covalently modify DCN-1.
DCN1 protein, His-TEV-DCN1, were expressed in E. Coli. The His-tagged protein was first purified with an Ni-NTA column. The His-tag was cleaved using His-tag TEV protease and the His-tags were removed using a second Ni-NTA column. Protein purity was verified with SDS-PAGE and intact MS. DCN1 was dissolved in a buffer containing 25 mM Tris-HCl, 200 mM NaCl, and 1 mM DTT at 400 nM. 11 concentrations of compounds were added to the DCN1 solution and incubated at room temperature for 3 hours, unless otherwise specified. The reaction plates were quenched by adding 0.2% formic acid. […] The cartridge was re-equilibrated with loading buffer for 1 second before collection of the next sample. The Q-TOF was operated in TOF-only positive ionization mode set to the following parameters: Gas Temp=350 C, Drying Gas=7 l/min, Nebulizer=50 psi, Sheath Gas Temp=400 C, Sheath Gas Flow=12 l/min, Vcap=4000 V, Nozzle Voltage=1000 V, Fragmentor=125 V, Skimmer=65 V and Oct 1 RF Vpp=750V. Raw MS data files were deconvoluted and analyzed using the Agilent MassHunter Bioconfirm software package to identify both parent protein and expected compound adduct mass signatures.

[1] = molecular target: DCN1 (DCUND1) protein PONY domain (Homo sapiens (Human), UniProt Q96GG9); experiment: TR-FRET assay, DCN1 binding with FAM-labeled probe
Chain of DCN1 (DCUND1) protein PONY domain (Q96GG9 60-248): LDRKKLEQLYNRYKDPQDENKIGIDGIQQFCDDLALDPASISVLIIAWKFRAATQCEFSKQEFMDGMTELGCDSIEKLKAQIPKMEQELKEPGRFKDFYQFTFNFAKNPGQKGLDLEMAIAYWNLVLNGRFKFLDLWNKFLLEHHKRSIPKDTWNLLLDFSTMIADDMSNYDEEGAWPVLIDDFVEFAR
Summary of the method: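 First, the E. coli-derived PONY domain was biotinylated and paired with streptavidin Tb cryptate. Compounds in 0.1% DMSO were then added to DCN1 and FAM-probe (5 nM/20 nM, or 0.31 nM/900 nM total with 800 nM unlabelled) in TritonX, 200 mM NaCl buffer. Finally, TR-FRET ratios were recorded at 1, 5 and 24 hrs.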

[2] = system: Cullin-3 (CUL3) neddylation; experiment: AlphaLISA assay for Cullin-3 (CUL3) neddylation in TF 1 cells; type: cell-based; conditions: Homo sapiens, TF-1, 3 h, 3 hours treatment
Summary of the method: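 Neddylated CUL3 was quantified by AlphaLISA in lysates of TF 1 cells exposed for 3 h to test compound in IMDM without supplements. Percent inhibition set between vehicle and 1 μM DI-1548 positive control; IC50 derived by Hill-equation fitting of dose-response curves.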

[3] = 24 hr after treatment with compound, read-out: TR FRET IC50 24 hr
[4] = read-out: TR FRET IC50 1 hr, 1 hr after treatment with compound

Chain of DCN1 protein (Q96GG9 whole entry): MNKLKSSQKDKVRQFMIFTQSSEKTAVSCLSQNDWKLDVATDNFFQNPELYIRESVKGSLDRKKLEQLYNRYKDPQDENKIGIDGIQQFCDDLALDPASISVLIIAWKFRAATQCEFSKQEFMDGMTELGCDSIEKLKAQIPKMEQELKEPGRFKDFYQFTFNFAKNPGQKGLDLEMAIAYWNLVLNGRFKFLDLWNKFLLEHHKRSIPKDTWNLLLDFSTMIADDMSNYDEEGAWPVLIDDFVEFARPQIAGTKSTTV

SMILES	% Adduct Formation (DCN1 protein)	other results
CCN1C(=O)[C@@H](NC(=O)c2cccc(C(F)(F)F)c2)[C@@H](c2ccc(F)cc2)c2c(CN(C)C(=O)C3=CCC3)nn(-c3ccccc3)c21 (racemic) [Compound I-200]	+ (MS Emax % adduct formation greater than or equal to 0.0 and less than or equal to 30.0)	–
CCN1C(=O)[C@@H](NC(=O)c2cccc(C(F)(F)F)c2)[C@@H](c2ccc(F)cc2)c2c(CNC(=O)/C(C#N)=C/C3CC3)nn(-c3ccccc3)c21 (racemic) [Compound I-217]	+ (MS Emax % adduct formation greater than or equal to 0.0 and less than or equal to 30.0)	–
CCN1C(=O)[C@@H](NC(=O)c2cccc(C(F)(F)F)c2)[C@@H](c2ccc(F)cc2)c2c([C@H](C)NS(=O)(=O)CCl)nn(-c3ccccc3)c21 (racemic) [Compound I-214]	+ (MS Emax % adduct formation greater than or equal to 0.0 and less than or equal to 30.0)	–
CCN1C(=O)[C@@H](NC(=O)c2cccc(C(F)(F)F)c2)[C@@H](c2ccc(F)cc2)c2c([C@@H](C)NC(=O)C(C)Cl)nn(-c3ccccc3)c21 (stereo in doubt) [Compound I-212]	+ (MS Emax % adduct formation greater than or equal to 0.0 and less than or equal to 30.0)	–
CCN1C(=O)[C@@H](NC(=O)c2cccc(C(F)(F)F)c2)[C@@H](c2ccc(F)cc2)c2c([C@@H](C)NC(=O)/C=C/CN3CCOCC3)nn(-c3ccccc3)c21 (mixture of isomers) [Compound I-165]	+ (MS Emax % adduct formation greater than or equal to 0.0 and less than or equal to 30.0)	–
CCN1C(=O)[C@@H](NC(=O)c2cccc(C(F)(F)F)c2)[C@@H](c2ccc(F)cc2)c2c(CNC(=O)COc3c(F)c(F)cc(F)c3F)nn(-c3ccccc3)c21 (racemic) [Compound I-182]	+ (MS Emax % adduct formation greater than or equal to 0.0 and less than or equal to 30.0)	–
CCN1C(=O)[C@@H](NC(=O)c2cccc(C(F)(F)F)c2)[C@@H](c2ccc(F)cc2)c2c(CNC(=O)C(Cl)Cl)nn(-c3ccccc3)c21 (racemic) [Compound I-169]	+ (MS Emax % adduct formation greater than or equal to 0.0 and less than or equal to 30.0)	–
CCN1C(=O)[C@@H](NC(=O)c2cccc(C(F)(F)F)c2)[C@@H](c2ccc(F)cc2)c2c(CNS(=O)(=O)CCl)nn(-c3ccccc3)c21 (racemic) [Compound I-198]	+ (MS Emax % adduct formation greater than or equal to 0.0 and less than or equal to 30.0)	–
C=CC(=O)N[C@H](C)c1nn(-c2ccccc2)c2c1[C@H](c1ccc(F)cc1)[C@H](NC(=O)c1cccc(C(F)(F)F)c1)C(=O)N2CC (mixture of isomers) [Compound I-174]	+ (MS Emax % adduct formation greater than or equal to 0.0 and less than or equal to 30.0)	–
C=C(F)C(=O)NCc1nn(-c2ccccc2)c2c1[C@H](c1ccc(F)cc1)[C@H](NC(=O)c1cccc(C(F)(F)F)c1)C(=O)N2CC [Compound I-240]	+ (MS Emax % adduct formation greater than or equal to 0.0 and less than or equal to 30.0)	–
CCN1C(=O)[C@H](NC(=O)c2cccc(C(F)(F)F)c2)[C@@H](c2ccc(F)cc2)c2c(C3CO3)nn(-c3ccccc3)c21 (relative stereo) [Compound I-207, N-((4RS,5SR)-7-ethyl-4-(4-fluorophenyl)-3-((S*)-oxiran-2-yl)-6-oxo-1-phenyl-4,5,6,7-tetrahydro-1H-pyrazolo[3,4-b]pyridine-5-yl)-3-(trifluoromethyl)benzamide]	+ (MS Emax % adduct formation greater than or equal to 0.0 and less than or equal to 30.0)	–
CCN1C(=O)[C@@H](NC(=O)c2cccc(C(F)(F)F)c2)[C@@H](c2ccc(F)cc2)c2c(CNC(=O)/C=C/CN3CCOCC3)nn(-c3ccccc3)c21 (racemic) [Compound I-183]	+ (MS Emax % adduct formation greater than or equal to 0.0 and less than or equal to 30.0)	–
CCN1C(=O)[C@@H](NC(=O)c2cccc(C(F)(F)F)c2)[C@@H](c2ccc(F)cc2)c2c(C(CCl)C(=O)N(C)C)nn(-c3ccccc3)c21 (mixture of isomers) [Compound I-216, rac-N-((4R,5R)-3-(3-chloro-1-(dimethylamino)-1-oxopropan-2-yl)-7-ethyl-4-(4-fluorophenyl)-6-oxo-1-phenyl-4,5,6,7-tetrahydro-1H-pyrazolo[3,4-b]pyridine-5-yl)-3-(trifluoromethyl)benzamide]	+ (MS Emax % adduct formation greater than or equal to 0.0 and less than or equal to 30.0)	–
CCN1C(=O)[C@@H](NC(=O)c2cccc(C(F)(F)F)c2)[C@@H](c2ccc(F)cc2)c2c(CNC(=O)/C=C/C(F)(F)F)nn(-c3ccccc3)c21 (racemic) [Compound I-221]	+ (MS Emax % adduct formation greater than or equal to 0.0 and less than or equal to 30.0)	–
CCN1C(=O)[C@@H](NC(=O)c2cccc(C(F)(F)F)c2)[C@@H](c2ccc(F)cc2)c2c(C(=O)N3CC[C@H](NC)[C@H]3C#N)nn(C3CCOCC3)c21 (mixture of isomers) [Compound I-693, N-((4S,5S)-3-(trans-(2S,3S)-2-cyano-3-(methylamino)pyrrolidine-1-carbonyl)-7-ethyl-4-(4-fluorophenyl)-6-oxo-1-(tetrahydro-2H-pyran-4-yl)-4,5,6,7-tetrahydro-1H-pyrazolo[3,4-b]pyridin-5-yl)-3-(trifluoromethyl)benzamide]	–	IC50 [1, 3]: ≤ 200 nM; IC50 [1, 4]: ≤ 200 nM; IC50 [2]: ≤ 100 nM
CCN1C(=O)[C@@H](NC(=O)c2cccc(C(F)(F)F)c2)[C@@H](c2ccc(F)cc2)c2c(CN(C)C/C=C/C(=O)N(C)C)nn(-c3ccccc3)c21 [Compound I-638]	–	IC50 [1, 3]: ≤ 200 nM; IC50 [1, 4]: ≤ 200 nM; IC50 [2]: > 1000 nM
CCN1C(=O)[C@@H](NC(=O)c2cccc(C(F)(F)F)c2)[C@@H](c2ccc(F)cc2)c2c(CN3C(=O)CC[C@H]3C#N)nn(-c3ccccc3)c21 [Compound I-622, N-((4S,5S)-3-(((S)-2-cyano-5-oxopyrrolidin-1-yl)methyl)-7-ethyl-4-(4-fluorophenyl)-6-oxo-1-phenyl-4,5,6,7-tetrahydro-1H-pyrazolo[3,4-b]pyridin-5-yl)-3-(trifluoromethyl)benzamide]	–	IC50 [1, 3]: 1000 to 3000 nM; IC50 ([1]; TR FRET IC50 1 hr (nM), 1 hr after treatment with compound): 1000 to 3000 nM; IC50 [2]: > 1000 nM
CCN1C(=O)[C@@](C)(NC(=O)c2cccc(C(F)(F)F)c2)[C@@H](C2CC2)c2c(C(=O)N3[C@H](C#N)C[C@H]4C[C@H]43)nn(C3CCOCC3)c21 [Compound I-516, N-((4S,5S)-3-((1R,3S,5R)-3-cyano-2-azabicyclo[3.1.0]hexane-2-carbonyl)-4-cyclopropyl-7-ethyl-5-methyl-6-oxo-1-(tetrahydro-2H-pyran-4-yl)-4,5,6,7-tetrahydro-1H-pyrazolo[3,4-b]pyridin-5-yl)-3-(trifluoromethyl)benzamide]	–	IC50 [1, 3]: ≤ 200 nM; IC50 [1, 4]: ≤ 200 nM; IC50 [2]: ≤ 100 nM
